Laboratory results published in ChEMBL document CHEMBL3797190, “Development of 3,5-Dinitrobenzylsulfanyl-1,3,4-oxadiazoles and Thiadiazoles as Selective Antitubercular Agents Active Against Replicating and Nonreplicating Mycobacterium tuberculosis” (J Med Chem, 2016).
In brackets after ≈: the same amount, converted by molar mass. Activity calls are given as the source filed them. No cut-off for these calls is given here.

Columns and labels:
[1] = tested on: Mycobacterium tuberculosis; experiment: Antimycobacterial activity against Mycobacterium tuberculosis CNCTC My 331/88 after 21 days by microdilution method; type: functional; settings: CNCTC My 331/88, 504 h
[2] = Cytotoxicity against MDCK2-MDR1 cells assessed as cell viability at 20 uM after 24 hrs by MTS assay; type: ADME, cell-based, Canis lupus familiaris, MDCK-II; settings: dog, read-out: Activity
[3] = Intrinsic clearance in human liver microsomes assessed per mg of protein at 3 uM preincubated for 5 mins followed by NADPH addition by HPLC analysis; type: ADME; settings: read-out: CLH
Staphylococcus aureus [4] = experiment: Antibacterial activity against methicillin-resistant Staphylococcus aureus H 5996/08 after 24 to 48 hrs by broth microdilution method; type: functional
Pichia kudriavzevii = experiment: Antifungal activity against Candida krusei E28 after 24 to 48 hrs by broth microdilution method; type: functional
[5] = Cytotoxicity against human HeLa cells assessed as cell viability at 20 uM after 48 hrs by MTS assay; type: cell-based; settings: read-out: Activity
Candida tropicalis = experiment: Antifungal activity against Candida tropicalis 156 after 24 to 48 hrs by broth microdilution method; type: functional
Enterococcus faecalis = experiment: Antibacterial activity against Enterococcus faecalis J 14365/08 after 24 to 48 hrs by broth microdilution method; type: functional
[6] = Chemical stability of compound in DMSO at 100 uM after 1 month by HPLC analysis; type: physicochemical; settings: 730.5 h
HepG2 = experiment: Cytotoxicity against human HepG2 cells assessed as cell viability after 48 hrs by MTS assay; type: cell-based; settings: HepG2, 48 h
Klebsiella pneumoniae [7] = experiment: Antibacterial activity against ESBL producing Klebsiella pneumoniae J 14368/08 after 24 to 48 hrs by broth microdilution method; type: functional
[8] = tested on: Mycobacterium tuberculosis; experiment: Antimycobacterial activity against Mycobacterium tuberculosis CNCTC My 331/88 after 14 days by microdilution method; type: functional; settings: CNCTC My 331/88, 336 h
Mycobacterium kansasii [9] = experiment: Antimycobacterial activity against Mycobacterium kansasii CNCTC My 6509/96 after 21 days by microdilution method; type: functional; settings: CNCTC My 6509/96, 504 h
[10] = tested on: Trichophyton mentagrophytes; experiment: Antifungal activity against Trichophyton mentagrophytes 445 after 72 to 120 hrs by broth microdilution method; type: functional
[11] = tested on: Mycobacterium tuberculosis; experiment: Antimycobacterial activity against non-replicating streptomycin-starved Mycobacterium tuberculosis SS18b-Lux measured at 5 mins to 6 days by luciferase assay; type: functional, organism-based
[12] = Cytotoxicity against human HeLa cells assessed as cell viability at 20 uM after 24 hrs by MTS assay; type: cell-based; settings: read-out: Activity
[13] = tested on: Mycobacterium tuberculosis; experiment: Inhibition of RNA biosynthesis in Mycobacterium tuberculosis H37Ra assessed as reduction of [14C]-uracil incorporation at 1 ug/ml preincubated for 1 hr followed by radiolabeling with [14C]-uracil for 24 hrs by scintillation spectrometry; type: functional
[14] = tested on: Mycobacterium tuberculosis H37Ra; experiment: Inhibition of DprE1 in Mycobacterium tuberculosis H37Ra assessed as accumulation of trehalose dimycolate at 0.2 ug/ml preincubated for 24 hrs followed by radiolabeling with [14C]-acetate for 24 hrs by TLC/autoradiographic method
HeLa [15] = experiment: Cytotoxicity against human HeLa cells assessed as cell viability after 48 hrs by MTS assay; type: cell-based
Mycobacterium kansasii [16] = experiment: Antimycobacterial activity against Mycobacterium kansasii CNCTC My 6509/96 after 14 days by microdilution method; type: functional; settings: CNCTC My 6509/96, 336 h
[17] = tested on: Mycobacterium tuberculosis H37Ra; experiment: Inhibition of DprE1 in Mycobacterium tuberculosis H37Ra assessed as accumulation of trehalose dimycolate at 0.5 ug/ml preincubated for 24 hrs followed by radiolabeling with [14C]-acetate for 24 hrs by TLC/autoradiographic method
Trichosporon asahii = experiment: Antifungal activity against Trichosporon asahii 1188 after 24 to 48 hrs by broth microdilution method; type: functional
[18] = Cytotoxicity against human HuH7 cells assessed as cell viability at 20 uM after 48 hrs by MTS assay; type: cell-based, Huh-7; settings: read-out: Activity
Nakaseomyces glabratus = experiment: Antifungal activity against Candida glabrata 20/I after 24 to 48 hrs by broth microdilution method; type: functional
[19] = tested on: Mycobacterium tuberculosis; experiment: Antimycobacterial activity against Mycobacterium tuberculosis H37Ra assessed as growth inhibition at 0.5 ug/ml preincubated for 24 hrs followed by radiolabeling with [14C]-acetate for 24 hrs; type: functional; settings: read-out: GI
Mycobacterium kansasii [20] = experiment: Antimycobacterial activity against Mycobacterium kansasii CNCTC My 235/80 after 14 days by microdilution method; type: functional; settings: CNCTC My 235/80, 336 h
[21] = tested on: Mycobacterium tuberculosis; experiment: Antimycobacterial activity against Mycobacterium tuberculosis CNCTC My 331/88 using 1 month stored compound at room temperature in DMSO after 14 to 21 days by microdilution method; type: functional, organism-based
Mycobacterium kansasii [22] = experiment: Antimycobacterial activity against Mycobacterium kansasii CNCTC My 235/80 after 7 days by microdilution method; type: functional; settings: CNCTC My 235/80, 168 h
Hepatocyte = experiment: Cytotoxicity against primary human hepatocytes assessed as cell viability after 48 hrs by MTS assay; type: cell-based
HeLa [23] = experiment: Cytotoxicity against human HeLa cells assessed as cell viability after 24 hrs by MTS assay; type: cell-based
Staphylococcus aureus [24] = experiment: Antibacterial activity against Staphylococcus aureus ATCC 6538 after 24 to 48 hrs by broth microdilution method; type: functional
[25] = Aqueous solubility of compound in water with 0.01 to 1% DMSO at 2 to 200 uM by HPLC analysis; type: physicochemical
[26] = tested on: Mycobacterium tuberculosis; experiment: Antimycobacterial activity against non-replicating streptomycin-starved Mycobacterium tuberculosis SS18b-Lux by resazurin reduction microplate assay; type: functional, organism-based
Mycobacterium avium = experiment: Antimycobacterial activity against Mycobacterium avium CNCTC My 330/88 after 21 days by microdilution method; type: functional; settings: CNCTC My 330/88, 504 h
Salmonella typhimurium = experiment: Mutagenic activity in Salmonella typhimurium TA100 assessed as reverse mutation at 30 uM by Ames test; type: toxicity, organism-based; settings: salmonella enterica subsp. enterica serovar typhimurium
Candida albicans = experiment: Antifungal activity against Candida albicans ATCC 44859 after 24 to 48 hrs by broth microdilution method; type: functional
[27] = Cytotoxicity against MDCK2-MDR1 cells assessed as cell viability at 20 uM after 48 hrs by MTS assay; type: ADME, cell-based, Canis lupus familiaris, MDCK-II; settings: dog, read-out: Activity
Aspergillus fumigatus = experiment: Antifungal activity against Aspergillus fumigatus 231 after 24 to 48 hrs by broth microdilution method; type: functional
Klebsiella pneumoniae [28] = experiment: Antibacterial activity against Klebsiella pneumoniae D 11750/08 after 24 to 48 hrs by broth microdilution method; type: functional
[29] = Cytotoxicity against human HuH7 cells assessed as cell viability after 24 hrs by MTS assay; type: cell-based; settings: Huh-7, 24 h
[30] = molecular target: Decaprenylphosphoryl-beta-D-ribose oxidase (Mycobacterium smegmatis (strain ATCC 700084 / mc(2)155)) (UniProt A0R607); experiment: Inhibition of DprE1 in mixture of Mycobacterium smegmatis MC2 155 membrane and cell envelope fractions assessed as incorporation of P[14C]RPP into [14C]-decaprenylphosphoryl arabinose up to 0.6 mM incubated for 1 hr by TLC/autoradiographic method; settings: Mycolicibacterium smegmatis MC2 155
Lichtheimia corymbifera = experiment: Antifungal activity against Absidia corymbifera 272 after 24 to 48 hrs by broth microdilution method; type: functional
[31] = Aqueous solubility of compound in distilled water at 0.2 mg/ml after 24 hrs by HPLC analysis; type: physicochemical

Chain of Decaprenylphosphoryl-beta-D-ribose oxidase (Mycobacterium smegmatis (strain ATCC 700084 / mc(2)155)) (A0R607 whole entry): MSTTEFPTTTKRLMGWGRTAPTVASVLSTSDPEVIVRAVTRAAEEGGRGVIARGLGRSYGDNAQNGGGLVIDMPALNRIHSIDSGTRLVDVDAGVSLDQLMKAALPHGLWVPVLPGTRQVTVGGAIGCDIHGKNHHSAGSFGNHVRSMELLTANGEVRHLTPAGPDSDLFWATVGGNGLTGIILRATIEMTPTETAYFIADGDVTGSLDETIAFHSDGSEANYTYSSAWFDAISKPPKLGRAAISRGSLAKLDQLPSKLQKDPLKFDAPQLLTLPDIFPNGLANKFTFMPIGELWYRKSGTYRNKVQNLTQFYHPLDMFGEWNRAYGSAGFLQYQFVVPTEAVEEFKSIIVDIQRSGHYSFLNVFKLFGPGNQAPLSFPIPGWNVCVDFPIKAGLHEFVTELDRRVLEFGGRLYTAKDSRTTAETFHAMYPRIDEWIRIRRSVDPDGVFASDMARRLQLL

**Q.** Which results are given for `Cc1ccc(-c2nnc(SCc3cc([N+](=O)[O-])cc([N+](=O)[O-])c3)o2)cc1`?
**A.** MIC99 [1]: ≤ 0.03 µM; viability at 24 h, 20 µM [2]: 98%; microsomal CLint at 3 µM [3]: 86 µL/min/mg; MIC95 (Staphylococcus aureus [4]): > 125 µM; MIC80 (Pichia kudriavzevii): > 125 µM; viability at 48 h, 20 µM [5]: 118%; MIC80 (Candida tropicalis): > 125 µM; MIC95 (Enterococcus faecalis): > 125 µM; Stability [6]: Stable; IC50 (HepG2): > 50 µM; MIC95 (Klebsiella pneumoniae [7]): > 125 µM; MIC99 [8]: ≤ 0.03 µM; MIC99 (Mycobacterium kansasii [9]): 0.125 µM (≈ 0.0465 µg/mL); MIC50 [10]: > 125 µM; Activity [11]: Dose-dependent effect; viability at 24 h, 20 µM [12]: 87.2%; inhibition at 1 µg/mL [13]: 50%; inhibition [14]: inactive; IC50 (HeLa [15]): > 20 µM; MIC99 (Mycobacterium kansasii [16]): 0.06 µM (≈ 0.0223 µg/mL); inhibition [17]: inactive; MIC80 (Trichosporon asahii): > 125 µM; viability at 48 h, 20 µM [18]: 53.1%; MIC80 (Nakaseomyces glabratus): > 125 µM; inhibition of growth at 0.5 µg/mL [19]: 36%; MIC99 (Mycobacterium kansasii [20]): 0.06 µM (≈ 0.0223 µg/mL); Activity [21]: Active; MIC99 (Mycobacterium kansasii [22]): 0.06 µM (≈ 0.0223 µg/mL); IC50 (Hepatocyte): > 20 µM; IC50 (HeLa [23]): > 20 µM; MIC95 (Staphylococcus aureus [24]): > 125 µM; solubility kinetic [25]: 0.5 µM (≈ 0.186 µg/mL); Activity [26]: Dose-dependent effect; MIC99 (Mycobacterium avium): 16 µM (≈ 5.96 µg/mL); Activity (Salmonella typhimurium): Non-toxic; MIC80 (Candida albicans): > 125 µM; viability at 48 h, 20 µM [27]: 48.5%; MIC50 (Aspergillus fumigatus): > 125 µM; MIC95 (Klebsiella pneumoniae [28]): > 125 µM; IC50 [29]: > 20 µM; inhibition [30]: inactive; MIC50 (Lichtheimia corymbifera): > 125 µM; solubility at 24 h [31]: 0.067 µM (≈ 0.0249 µg/mL)

**Q.** What does the source list for `O=[N+]([O-])c1cc(CSc2nnc(-c3ccc(Cl)cc3)s2)cc([N+](=O)[O-])c1`?
**A.** MIC99 [1]: 0.06 µM (≈ 0.0245 µg/mL); viability at 24 h, 20 µM [2]: 102%; microsomal CLint at 3 µM [3]: 29 µL/min/mg; MIC95 (Staphylococcus aureus [4]): > 125 µM; MIC80 (Pichia kudriavzevii): > 125 µM; viability at 48 h, 20 µM [5]: 108%; MIC80 (Candida tropicalis): > 125 µM; MIC95 (Enterococcus faecalis): > 125 µM; Stability [6]: Stable; IC50 (HepG2): > 50 µM; MIC95 (Klebsiella pneumoniae [7]): > 125 µM; MIC99 [8]: 0.06 µM (≈ 0.0245 µg/mL); MIC99 (Mycobacterium kansasii [9]): 0.5 µM (≈ 0.204 µg/mL); MIC50 [10]: > 125 µM; Activity [11]: Dose-dependent effect; viability at 24 h, 20 µM [12]: 92.8%; inhibition at 1 µg/mL [13]: 13%; inhibition [14]: inactive; IC50 (HeLa [15]): > 20 µM; MIC99 (Mycobacterium kansasii [16]): 0.25 µM (≈ 0.102 µg/mL); inhibition [17]: inactive; MIC80 (Trichosporon asahii): > 125 µM; viability at 48 h, 20 µM [18]: 43.4%; MIC80 (Nakaseomyces glabratus): > 125 µM; inhibition of growth at 0.5 µg/mL [19]: 12%; MIC99 (Mycobacterium kansasii [20]): 0.5 µM (≈ 0.204 µg/mL); Activity [21]: Active; MIC99 (Mycobacterium kansasii [22]): 0.125 µM (≈ 0.0511 µg/mL); IC50 (Hepatocyte): > 20 µM; IC50 (HeLa [23]): > 20 µM; MIC95 (Staphylococcus aureus [24]): > 125 µM; solubility kinetic [25]: 0.54 µM (≈ 0.221 µg/mL); Activity [26]: Dose-dependent effect; MIC99 (Mycobacterium avium): 16 µM (≈ 6.54 µg/mL); Activity (Salmonella typhimurium): Non-toxic; MIC80 (Candida albicans): > 125 µM; viability at 48 h, 20 µM [27]: 91.4%; MIC50 (Aspergillus fumigatus): > 125 µM; MIC95 (Klebsiella pneumoniae [28]): > 125 µM; IC50 [29]: > 20 µM; inhibition [30]: inactive; MIC50 (Lichtheimia corymbifera): > 125 µM; solubility at 24 h [31]: 0.03 µM (≈ 0.0123 µg/mL)
